Reference: PubChem BioAssay (NCI)
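Test compounds were applied to cells in 96-well plates for 48 hours at 5 doses. TGI is the concentration that stops growth completely.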

Assays:
Experiment in all cases: NCI anticancer screen, dose series, 48 h
HOP-92 NSCLC = tested on: HOP-92 NSCLC
BT-549 breast = tested on: BT-549 breast
SN12C renal = tested on: SN12C renal
HCT-116 colon = tested on: HCT-116 colon
MCF7 breast = tested on: MCF7 breast
A549 NSCLC = tested on: A549 NSCLC
T-47D breast = tested on: T-47D breast
HCC-2998 colon = tested on: HCC-2998 colon
OVCAR-4 ovarian = tested on: OVCAR-4 ovarian
OVCAR-5 ovarian = tested on: OVCAR-5 ovarian
PC-3 prostate = tested on: PC-3 prostate
SK-MEL-28 melanoma = tested on: SK-MEL-28 melanoma
U251 CNS = tested on: U251 CNS
RXF 393 renal = tested on: RXF 393 renal
SR leukemia = tested on: SR leukemia

| Compound | TGI (HOP-92 NSCLC) [µM] | TGI (BT-549 breast) [µM] | TGI (SN12C renal) [µM] | TGI (HCT-116 colon) [µM] | TGI (MCF7 breast) [µM] | TGI (A549 NSCLC) [µM] | TGI (T-47D breast) [µM] | TGI (HCC-2998 colon) [µM] | TGI (OVCAR-4 ovarian) [µM] | TGI (OVCAR-5 ovarian) [µM] | TGI (PC-3 prostate) [µM] | TGI (SK-MEL-28 melanoma) [µM] | TGI (U251 CNS) [µM] | TGI (RXF 393 renal) [µM] | TGI (SR leukemia) [µM] |
| --- | --- | --- | --- | --- | --- | --- | --- | --- | --- | --- | --- | --- | --- | --- | --- |
| CC(=O)C(C(C)=O)[C@H]1OC(C)(C)O[C@H]1[C@H]1COC(C)(C)O1 | > 100 | 90.5 | > 100 | > 100 | > 100 | > 100 | > 100 | 86 | > 100 | > 100 | 68.9 | > 100 | 79.9 | > 100 |  |
| Clc1ccc(C2=NCON=C2c2ccc(Cl)cc2)cc1 | 43.5 | 41.7 | 35.2 | 31.3 | 85.6 | > 100 | 22.8 | 32.7 | > 100 | 90.7 | 68.2 |  | 40.1 | 44.8 |  |
| O=C(O)CCC1NC(/C(=C/c2ccccc2O)NC(=O)c2ccccc2)OC1=O (configuration not stated) | > 100 | > 100 | > 100 | > 100 | > 100 | > 100 | > 100 | > 100 | > 100 | > 100 | > 100 | > 100 | > 100 | > 100 |  |
| COc1ccc(/C=N/Nc2nnc3c(n2)c2ccccc2c2nn(-c4ccccc4Cl)nc23)cc1 | > 100 | > 100 | > 100 | > 100 |  | > 100 | > 100 |  | > 100 | > 100 | > 100 | > 100 | > 100 | > 100 |  |
| CC(=O)N1c2cc(N=NN(C)C)ccc2NC(=O)CC1C (configuration not stated) |  | > 100 | > 100 | > 100 | > 100 | > 100 | > 100 | > 100 | > 100 | > 100 | > 100 | > 100 | > 100 | > 100 |  |
| CC(=O)O[C@H]1C(=O)[C@@]2(C)[C@H]([C@H](OC(=O)c3ccco3)[C@]3(O)C[C@H](OC(=O)[C@H](O)[C@@H](NC(=O)c4ccccc4)c4ccccc4)C(C)=C1C3(C)C)[C@]1(OC(C)=O)CO[C@@H]1C[C@@H]2O | > 25 | > 25 | > 25 |  | > 25 | > 25 | > 25 | 20 | > 25 | > 25 | > 23.5 | > 25 | > 25 | 3.76 | > 7.67 |
| O=S(=O)(O)c1cc(O)c(N=Nc2ccc3ccccc3c2O)c2ccccc12 | > 100 | > 100 | > 100 | > 100 |  | 52.6 | 84.6 |  | > 100 | > 100 | > 100 | > 100 | > 100 | > 100 | > 100 |
| CC[C@@]12CCC(=S)N(CCSc3ccccc3)[C@@H]1c1c(n(S(=O)(=O)c3ccc(OC)cc3)c3ccccc13)CC2 | > 100 | > 100 | > 100 | > 100 | > 100 | > 100 | > 100 |  |  | > 100 | > 100 | > 100 | > 100 | > 100 | > 100 |
| CN(C)C(=O)Oc1ccc(C(=S)Nc2ccccc2)cc1 |  | 79.7 |  | > 100 | > 100 | > 100 | > 100 | > 100 | > 100 | > 100 | > 100 | > 100 | > 100 |  | > 100 |
| CC(=O)NN(c1ccccc1)C1CCN(c2ccccc2)N1C(C)=O (configuration not stated) |  | > 10 | > 10 | > 10 | > 10 | > 10 | > 10 | > 10 | > 10 | > 10 | > 10 | > 10 |  | > 10 | > 10 |
| Cn1c(=O)c2c(nc(N/N=C3/SCC(=O)N3Cc3ccccc3)n2C)n(C)c1=O | 78.7 | > 100 | > 100 | > 100 | > 100 | > 100 | > 100 | > 100 | > 100 | > 100 | > 100 | > 100 | > 100 | > 100 |  |
| CC(=O)N[C@@H](Cc1ccc(O)cn1)C(=O)NC1CCCCC1 | > 100 | > 100 | > 100 | > 100 | > 100 | > 100 | > 100 | > 100 | > 100 | > 100 | > 100 | > 100 | > 100 |  | > 100 |
| COc1ccc(/C=N/NC(=S)Nc2cc(C)ccc2OC)cc1 | 72 | 88.8 | 68.6 | > 100 | > 100 | > 100 | > 100 |  | > 100 | 73 | > 100 | > 100 |  | > 100 | 41.9 |
| CC(=O)[C@]1(O)Cc2c(O)c3c(c(O)c2[C@@H](OC2CC(N)C(O)C(C)O2)C1)C(=O)c1c(OCc2ccccc2)cccc1C3=O (some centres not stated) | 22.6 | 21.2 | 4.65 | 1.79 |  | 6.93 | 8.11 | 2.63 | 9.36 | 5.12 | 2.64 | 2.91 | 3.97 | 15.1 | 0.468 |
| CCCCCCCCCCCCC1N=C(N)N2CCCC2=C1C(=O)OC (configuration not stated) | 10.3 | 35 |  | 3.34 |  | 36.2 | 3.73 | 3.25 | 5.86 | 13 | 3.95 | 3.1 | 3.06 | 69.4 | > 100 |
| CSc1nc[nH]c1C(N)=S |  | > 100 |  | > 100 | > 100 | > 100 | > 100 |  |  | > 100 | > 100 | > 100 | > 100 | > 100 |  |
| CCOC(=O)C1CCC(=O)N1C(=O)c1ccc(Cl)cc1 (configuration not stated) | > 100 | > 100 | > 100 | > 100 | > 100 | > 100 | > 100 | > 100 |  | > 100 |  | > 100 | > 100 | > 100 | > 100 |
